From patent US9340590B2 (priority 2011, dated 2016)
Where two headings read alike, the source gives them in different places. Positions of bridges follow the written chain, without caps; N, C: chain ends. Residues, ends and D or L forms follow the SMILES beside them.

Assays:
Experiment in all cases: cell-based
hNav1.5 = hNav1.5 (Homo sapiens, UniProt Q14524)
hNav1.7 [1] = target: T1, hNav1.7 (Homo sapiens, UniProt Q15858); type: cell-based
hNav1.3 = hNav1.3 (Homo sapiens, UniProt Q9NY46); conditions: IonWorks Quattro, read-out: IWQ Use Nav1.3
hNav1.7 [2] = target: T1, hNav1.7

T1 sequence (Q15858 whole entry, looked up): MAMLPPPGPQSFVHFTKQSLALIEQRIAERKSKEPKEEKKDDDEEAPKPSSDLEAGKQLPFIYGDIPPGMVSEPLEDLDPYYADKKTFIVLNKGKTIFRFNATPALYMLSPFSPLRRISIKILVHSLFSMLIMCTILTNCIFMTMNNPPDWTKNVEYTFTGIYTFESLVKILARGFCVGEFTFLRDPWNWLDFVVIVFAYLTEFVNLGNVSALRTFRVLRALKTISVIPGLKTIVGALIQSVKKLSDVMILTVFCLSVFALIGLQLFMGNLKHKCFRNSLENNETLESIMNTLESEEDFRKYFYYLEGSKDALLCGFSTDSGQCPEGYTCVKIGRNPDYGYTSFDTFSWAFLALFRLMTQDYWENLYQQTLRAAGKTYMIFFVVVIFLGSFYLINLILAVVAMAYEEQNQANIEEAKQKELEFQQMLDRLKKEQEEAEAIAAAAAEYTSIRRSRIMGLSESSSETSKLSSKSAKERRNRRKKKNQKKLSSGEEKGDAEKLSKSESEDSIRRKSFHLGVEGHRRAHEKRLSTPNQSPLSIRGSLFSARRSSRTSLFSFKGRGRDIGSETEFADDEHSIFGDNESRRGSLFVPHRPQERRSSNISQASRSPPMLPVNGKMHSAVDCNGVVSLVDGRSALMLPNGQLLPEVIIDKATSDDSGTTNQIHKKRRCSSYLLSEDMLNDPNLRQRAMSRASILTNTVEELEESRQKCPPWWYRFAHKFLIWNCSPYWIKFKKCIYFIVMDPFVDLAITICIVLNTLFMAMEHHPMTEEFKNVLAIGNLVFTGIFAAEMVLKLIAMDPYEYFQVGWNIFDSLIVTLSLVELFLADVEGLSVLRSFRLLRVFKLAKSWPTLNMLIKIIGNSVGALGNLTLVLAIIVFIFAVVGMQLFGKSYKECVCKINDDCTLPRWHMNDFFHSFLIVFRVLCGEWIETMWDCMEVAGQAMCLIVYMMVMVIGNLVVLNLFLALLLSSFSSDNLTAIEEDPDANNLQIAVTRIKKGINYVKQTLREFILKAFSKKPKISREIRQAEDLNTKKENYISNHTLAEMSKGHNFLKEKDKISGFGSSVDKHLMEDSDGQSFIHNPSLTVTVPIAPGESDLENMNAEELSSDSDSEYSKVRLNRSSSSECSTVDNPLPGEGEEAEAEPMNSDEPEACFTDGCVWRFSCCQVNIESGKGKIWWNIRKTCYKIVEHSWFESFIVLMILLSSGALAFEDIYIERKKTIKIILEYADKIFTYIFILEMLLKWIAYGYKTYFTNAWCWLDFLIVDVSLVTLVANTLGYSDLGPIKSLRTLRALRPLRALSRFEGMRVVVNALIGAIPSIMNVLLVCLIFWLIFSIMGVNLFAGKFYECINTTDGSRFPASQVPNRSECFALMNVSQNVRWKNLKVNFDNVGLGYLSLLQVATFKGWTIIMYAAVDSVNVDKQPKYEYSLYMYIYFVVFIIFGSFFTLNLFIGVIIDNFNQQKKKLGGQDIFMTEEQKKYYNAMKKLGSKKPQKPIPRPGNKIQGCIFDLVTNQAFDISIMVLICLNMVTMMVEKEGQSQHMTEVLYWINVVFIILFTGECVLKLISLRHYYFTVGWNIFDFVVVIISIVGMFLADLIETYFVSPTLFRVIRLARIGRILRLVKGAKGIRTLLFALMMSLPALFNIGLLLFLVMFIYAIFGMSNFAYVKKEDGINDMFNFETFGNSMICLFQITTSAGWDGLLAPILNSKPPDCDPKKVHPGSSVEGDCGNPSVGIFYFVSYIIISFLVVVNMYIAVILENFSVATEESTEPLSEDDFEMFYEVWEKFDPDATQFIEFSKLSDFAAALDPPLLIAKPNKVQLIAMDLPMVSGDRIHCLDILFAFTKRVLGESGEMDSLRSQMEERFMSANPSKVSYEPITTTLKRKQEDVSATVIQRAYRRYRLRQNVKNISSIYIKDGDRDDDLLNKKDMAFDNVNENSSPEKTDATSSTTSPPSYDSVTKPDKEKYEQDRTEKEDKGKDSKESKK
Chain of hNav1.5 (Q14524 whole entry, looked up): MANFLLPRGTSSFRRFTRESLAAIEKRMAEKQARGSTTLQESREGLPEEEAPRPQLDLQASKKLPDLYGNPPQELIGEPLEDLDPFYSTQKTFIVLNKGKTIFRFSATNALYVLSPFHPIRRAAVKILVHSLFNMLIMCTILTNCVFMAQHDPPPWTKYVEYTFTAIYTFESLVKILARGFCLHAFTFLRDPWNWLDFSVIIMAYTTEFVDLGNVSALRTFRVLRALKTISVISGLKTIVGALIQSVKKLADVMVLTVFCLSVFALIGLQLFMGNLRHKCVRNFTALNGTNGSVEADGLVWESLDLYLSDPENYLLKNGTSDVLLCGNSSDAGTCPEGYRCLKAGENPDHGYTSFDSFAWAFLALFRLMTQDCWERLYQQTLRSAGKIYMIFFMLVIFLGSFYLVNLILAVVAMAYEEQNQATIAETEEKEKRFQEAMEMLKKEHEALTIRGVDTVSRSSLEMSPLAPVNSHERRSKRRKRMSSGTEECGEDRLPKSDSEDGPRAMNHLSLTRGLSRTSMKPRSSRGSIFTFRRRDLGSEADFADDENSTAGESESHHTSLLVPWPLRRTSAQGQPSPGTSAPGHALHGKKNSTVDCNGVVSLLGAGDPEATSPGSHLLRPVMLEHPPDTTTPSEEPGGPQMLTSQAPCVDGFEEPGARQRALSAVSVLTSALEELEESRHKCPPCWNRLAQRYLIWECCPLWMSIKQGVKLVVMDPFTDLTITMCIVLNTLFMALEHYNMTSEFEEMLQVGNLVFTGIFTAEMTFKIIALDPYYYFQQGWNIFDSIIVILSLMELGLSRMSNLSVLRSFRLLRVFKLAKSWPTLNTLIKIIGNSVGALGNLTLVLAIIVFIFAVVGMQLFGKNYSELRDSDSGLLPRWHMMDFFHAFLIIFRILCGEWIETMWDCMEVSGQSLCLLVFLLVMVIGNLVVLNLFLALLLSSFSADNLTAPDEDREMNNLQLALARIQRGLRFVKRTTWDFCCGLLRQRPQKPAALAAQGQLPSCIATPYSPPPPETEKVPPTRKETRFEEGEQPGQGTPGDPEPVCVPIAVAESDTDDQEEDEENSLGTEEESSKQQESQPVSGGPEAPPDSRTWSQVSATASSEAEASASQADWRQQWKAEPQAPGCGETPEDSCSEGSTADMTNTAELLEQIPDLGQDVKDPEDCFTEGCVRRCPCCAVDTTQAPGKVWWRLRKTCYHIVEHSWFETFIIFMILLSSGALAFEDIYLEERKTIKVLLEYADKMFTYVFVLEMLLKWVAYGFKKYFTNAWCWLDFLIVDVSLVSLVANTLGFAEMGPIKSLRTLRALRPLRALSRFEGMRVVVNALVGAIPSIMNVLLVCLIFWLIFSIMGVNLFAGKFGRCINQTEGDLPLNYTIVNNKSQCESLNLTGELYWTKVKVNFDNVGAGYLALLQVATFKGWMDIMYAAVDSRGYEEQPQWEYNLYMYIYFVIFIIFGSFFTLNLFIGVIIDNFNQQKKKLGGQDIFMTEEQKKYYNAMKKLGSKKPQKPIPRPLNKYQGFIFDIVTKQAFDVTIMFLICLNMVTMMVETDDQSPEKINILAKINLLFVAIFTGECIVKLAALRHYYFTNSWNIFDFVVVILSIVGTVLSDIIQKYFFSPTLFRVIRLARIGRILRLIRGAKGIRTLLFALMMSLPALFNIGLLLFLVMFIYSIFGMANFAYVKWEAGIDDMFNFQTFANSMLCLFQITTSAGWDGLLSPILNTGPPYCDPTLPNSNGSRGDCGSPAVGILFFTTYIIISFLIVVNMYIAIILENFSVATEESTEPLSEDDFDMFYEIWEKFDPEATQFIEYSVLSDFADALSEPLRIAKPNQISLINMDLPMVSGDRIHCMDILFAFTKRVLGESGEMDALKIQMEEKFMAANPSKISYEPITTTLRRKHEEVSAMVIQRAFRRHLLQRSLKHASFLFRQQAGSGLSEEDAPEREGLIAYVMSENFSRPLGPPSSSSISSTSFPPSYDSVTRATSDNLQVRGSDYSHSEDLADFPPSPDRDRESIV

## CC[C@H](C)[C@@H]1NC(=O)[C@@H]2CSSC[C@@H]3NC(=O)[C@H](C(C)C)NC(=O)[C@H](CC(C)C)NC(=O)[C@H](CC(N)=O)NC(=O)[C@@H]4CCCN4C(=O)[C@H](CCCNC(=N)N)NC(=O)[C@H](CSSC[C@H](NC(=O)[C@@H](N)CC(=O)O)C(=O)N[C@@H](CC(C)C)C(=O)NCC(=O)N[C@@H](CC(C)C)C(=O)N[C@@H](CCSC)C(=O)N[C@@H](CCCNC(=N)N)C(=O)N[C@@H](CCCCN)C(=O)N2)NC(=O)[C@H](CSSC[C@@H](C(=O)N[C@@H](CCCCN)C(=O)N[C@@H](Cc2ccc(O)cc2)C(=O)N[C@H](C(=O)N[C@@H](Cc2ccccc2)C(N)=O)C(C)C)NC(=O)[C@H](Cc2c[nH]c4ccccc24)NC(=O)[C@H](CCCCN)NC(=O)[C@H](Cc2cnc[nH]2)NC(=O)[C@H]([C@@H](C)O)NC(=O)[C@H](CCCNC(=N)N)NC(=O)[C@H](CO)NC3=O)NC(=O)[C@H](CCCCN)NC(=O)[C@H](CC(=O)O)NC(=O)[C@H](CC(N)=O)NC(=O)[C@H](CC(=O)O)NC(=O)[C@@H]2CCCN2C1=O [SEQ ID NO: 267] (H-DCLGLMRKCIPDNDKCCRPNLVCSRTHKWCKYVF-NH2; disulfide 2-17, 9-23, 16-30)
hNav1.5; IonWorks Quattro, clamped to −110 mV, depolarized to −10 mV, 5 min after compound, n=2, read-out: IWQ Use Nav1.5
  IC50: 7.4 µM
hNav1.7 [1]
  IC50: 170 nM
hNav1.3; clamped to −110 mV, depolarized to −10 mV, 5 min after compound, n=2
  IC50: 300 nM
hNav1.7 [2]; Nav1.7 Use IC50
  IC50: 7 nM

## CCC[C@@H]1NC(=O)CNC(=O)[C@H](CC(C)C)NC(=O)[C@@H](NC(=O)[C@@H](N)CC(=O)O)CSSC[C@@H]2NC(=O)[C@@H]3CSSC[C@@H](C(=O)N[C@@H](CCCCN)C(=O)N[C@@H](Cc4ccc(O)cc4)C(=O)N[C@H](C(=O)N[C@@H](Cc4ccccc4)C(N)=O)C(C)C)NC(=O)[C@H](Cc4c[nH]c5ccccc45)NC(=O)[C@H](CCCCN)NC(=O)[C@H](Cc4cnc[nH]4)NC(=O)[C@H]([C@@H](C)O)NC(=O)[C@H](CCCNC(=N)N)NC(=O)[C@H](CO)NC(=O)[C@H](CSSC[C@H](NC(=O)[C@H](CCCCN)NC(=O)[C@H](CCCNC(=N)N)NC(=O)[C@H](CCSC)NC1=O)C(=O)N[C@@H]([C@@H](C)CC)C(=O)N1CCC[C@H]1C(=O)N[C@@H](CC(=O)O)C(=O)N[C@@H](CC(N)=O)C(=O)N[C@@H](CC(=O)O)C(=O)N[C@@H](CCCCN)C(=O)N3)NC(=O)[C@H](C(C)C)NC(=O)[C@H](CC(C)C)NC(=O)[C@H](CC(N)=O)NC(=O)[C@@H]1CCCN1C(=O)[C@H](CCCNC(=N)N)NC2=O [[Nva5]GpTx-1(1-34)]
hNav1.7 [2]; Nav1.7 Use IC50
  IC50: 38 nM

## CC[C@H](C)[C@@H]1NC(=O)[C@@H]2CSSC[C@@H]3NC(=O)[C@H](C(C)C)NC(=O)[C@H](CC(C)C)NC(=O)[C@H](CC(N)=O)NC(=O)[C@@H]4CCCN4C(=O)[C@H](CCCNC(=N)N)NC(=O)[C@H](CSSC[C@H](NC(=O)[C@@H](N)CC(=O)O)C(=O)N[C@@H](CC(C)C)C(=O)NCC(=O)N[C@@H](C4CCCCC4)C(=O)N[C@@H](CCSC)C(=O)N[C@@H](CCCNC(=N)N)C(=O)N[C@@H](CCCCN)C(=O)N2)NC(=O)[C@H](CSSC[C@@H](C(=O)N[C@@H](CCCCN)C(=O)N[C@@H](Cc2ccc(O)cc2)C(=O)N[C@H](C(=O)N[C@@H](Cc2ccccc2)C(N)=O)C(C)C)NC(=O)[C@H](Cc2c[nH]c4ccccc24)NC(=O)[C@H](CCCCN)NC(=O)[C@H](Cc2cnc[nH]2)NC(=O)[C@H]([C@@H](C)O)NC(=O)[C@H](CCCNC(=N)N)NC(=O)[C@H](CO)NC3=O)NC(=O)[C@H](CCCCN)NC(=O)[C@H](CC(=O)O)NC(=O)[C@H](CC(N)=O)NC(=O)[C@H](CC(=O)O)NC(=O)[C@@H]2CCCN2C1=O [[Chg5]GpTx-1(1-34)]
hNav1.7 [2]; Nav1.7 Use IC50
  IC50: 7 nM

## CC[C@H](C)[C@@H]1NC(=O)[C@@H]2CSSC[C@@H]3NC(=O)[C@H](C(C)C)NC(=O)[C@H](CC(C)C)NC(=O)[C@H](CC(N)=O)NC(=O)[C@@H]4CCCN4C(=O)[C@H](CCCNC(=N)N)NC(=O)[C@H](CSSC[C@H](NC(=O)[C@@H](N)CC(=O)O)C(=O)N[C@@H](CC(C)C)C(=O)NCC(=O)N[C@@H](Cc4ccccc4)C(=O)N[C@@H](CCSC)C(=O)N[C@@H](CCCNC(=N)N)C(=O)N[C@@H](CCCCN)C(=O)N2)NC(=O)[C@H](CSSC[C@@H](C(=O)N[C@@H](CCCCN)C(=O)N[C@@H](Cc2ccc(O)cc2)C(=O)N[C@H](C(=O)N[C@@H](Cc2ccccc2)C(N)=O)C(C)C)NC(=O)[C@H](Cc2c[nH]c4ccccc24)NC(=O)[C@H](CCC(=O)O)NC(=O)[C@H](Cc2cnc[nH]2)NC(=O)[C@H]([C@@H](C)O)NC(=O)[C@H](CCCNC(=N)N)NC(=O)[C@H](CO)NC3=O)NC(=O)[C@H](CCCCN)NC(=O)[C@H](CC(=O)O)NC(=O)[C@H](CC(N)=O)NC(=O)[C@H](CC(=O)O)NC(=O)[C@@H]2CCCN2C1=O [SEQ ID NO: 153, [Glu28]GpTx-1(1-34)] (H-DCLGFMRKCIPDNDKCCRPNLVCSRTHEWCKYVF-NH2; disulfide 2-17, 9-23, 16-30)
hNav1.5; IWQ Use Nav1.5 (μM)
  IC50: 14.1 µM
hNav1.3; Table 23, use, […]
  IC50: 800 nM
hNav1.7 [2]; Nav1.7 Use IC50
  IC50: 50.1 nM

## CC[C@@H]1NC(=O)CNC(=O)[C@H](CC(C)C)NC(=O)[C@@H](NC(=O)[C@@H](N)CC(=O)O)CSSC[C@@H]2NC(=O)[C@@H]3CSSC[C@@H](C(=O)N[C@@H](CCCCN)C(=O)N[C@@H](Cc4ccc(O)cc4)C(=O)N[C@H](C(=O)N[C@@H](Cc4ccccc4)C(N)=O)C(C)C)NC(=O)[C@H](Cc4c[nH]c5ccccc45)NC(=O)[C@H](CCCCN)NC(=O)[C@H](Cc4cnc[nH]4)NC(=O)[C@H]([C@@H](C)O)NC(=O)[C@H](CCCNC(=N)N)NC(=O)[C@H](CO)NC(=O)[C@H](CSSC[C@H](NC(=O)[C@H](CCCCN)NC(=O)[C@H](CCCNC(=N)N)NC(=O)[C@H](CCSC)NC1=O)C(=O)N[C@@H]([C@@H](C)CC)C(=O)N1CCC[C@H]1C(=O)N[C@@H](CC(=O)O)C(=O)N[C@@H](CC(N)=O)C(=O)N[C@@H](CC(=O)O)C(=O)N[C@@H](CCCCN)C(=O)N3)NC(=O)[C@H](C(C)C)NC(=O)[C@H](CC(C)C)NC(=O)[C@H](CC(N)=O)NC(=O)[C@@H]1CCCN1C(=O)[C@H](CCCNC(=N)N)NC2=O [[2-Abu5]GpTx-1(1-34)]
hNav1.7 [2]; Nav1.7 Use IC50
  IC50: 83 nM

## CCCC[C@@H]1NC(=O)[C@H](C)NC(=O)CNC(=O)[C@H](CC(C)C)NC(=O)[C@@H](NC(=O)[C@@H](N)CC(=O)O)CSSC[C@@H]2NC(=O)[C@@H]3CSSC[C@@H](C(=O)N[C@@H](CCCCN)C(=O)N[C@@H](Cc4ccc(O)cc4)C(=O)N[C@H](C(=O)N[C@@H](Cc4ccccc4)C(N)=O)C(C)C)NC(=O)[C@H](Cc4c[nH]c5ccccc45)NC(=O)[C@H](CCCCN)NC(=O)[C@H](Cc4c[nH]cn4)NC(=O)[C@H]([C@@H](C)O)NC(=O)[C@H](CCCNC(=N)N)NC(=O)[C@H](CO)NC(=O)[C@H](CSSC[C@H](NC(=O)[C@H](CCCCN)NC(=O)[C@H](CCCNC(=N)N)NC1=O)C(=O)N[C@@H]([C@@H](C)CC)C(=O)N1CCC[C@H]1C(=O)N[C@@H](CC(=O)O)C(=O)N[C@@H](CC(N)=O)C(=O)N[C@@H](CC(=O)O)C(=O)N[C@@H](CCCCN)C(=O)N3)NC(=O)[C@H](C(C)C)NC(=O)[C@H](CC(C)C)NC(=O)[C@H](CC(N)=O)NC(=O)[C@@H]1CCCN1C(=O)[C@H](CCCNC(=N)N)NC2=O [[Ala5;Nle6]GpTx-1(1-34)]
hNav1.7 [2]; read-out: Nav1.7 Use IC50
  IC50: 10 nM

## CSCC[C@@H]1NC(=O)[C@H](Cc2ccccc2)NC(=O)CNC(=O)[C@H](CC(C)C)NC(=O)[C@@H](NC(=O)[C@@H](N)CC(=O)O)CSSC[C@@H]2NC(=O)[C@@H]3CSSC[C@@H](C(=O)N[C@@H](CCCCN)C(=O)N[C@@H](Cc4ccc(O)cc4)C(=O)N[C@H](C(=O)N[C@@H](Cc4ccccc4)C(N)=O)C(C)C)NC(=O)[C@H](Cc4c[nH]c5ccccc45)NC(=O)[C@H](CCCCN)NC(=O)[C@H](Cc4cnc[nH]4)NC(=O)[C@H]([C@@H](C)O)NC(=O)[C@H](CCCNC(=N)N)NC(=O)[C@H](CO)NC(=O)[C@H](CSSC[C@H](NC(=O)[C@H](CCCCN)NC(=O)[C@H](CCCNC(=N)N)NC1=O)C(=O)N[C@@H](CCC(=O)O)C(=O)N1CCC[C@H]1C(=O)N[C@@H](CC(=O)O)C(=O)N[C@@H](CC(N)=O)C(=O)N[C@@H](CC(=O)O)C(=O)N[C@@H](CCCCN)C(=O)N3)NC(=O)[C@H](C(C)C)NC(=O)[C@H](CC(C)C)NC(=O)[C@H](CC(N)=O)NC(=O)[C@@H]1CCCN1C(=O)[C@H](CCCNC(=N)N)NC2=O [[Glu10]GpTx-1(1-34)] (H-DCLGFMRKCEPDNDKCCRPNLVCSRTHKWCKYVF-NH2; disulfide 2-17, 9-23, 16-30)
hNav1.7 [2]; Nav1.7 Use IC50
  IC50: 2 nM

## CC[C@H](C)[C@@H]1NC(=O)[C@@H]2CSSC[C@@H]3NC(=O)[C@H](C(C)C)NC(=O)[C@H](CC(C)C)NC(=O)[C@H](CC(N)=O)NC(=O)[C@@H]4CCCN4C(=O)[C@H](CCCNC(=N)N)NC(=O)[C@H](CSSC[C@H](NC(=O)[C@@H](N)CC(=O)O)C(=O)N[C@@H](CC(C)C)C(=O)NCC(=O)NCC(=O)N[C@@H](CCSC)C(=O)N[C@@H](CCCNC(=N)N)C(=O)N[C@@H](CCCCN)C(=O)N2)NC(=O)[C@H](CSSC[C@@H](C(=O)N[C@@H](CCCCN)C(=O)N[C@@H](Cc2ccc(O)cc2)C(=O)N[C@H](C(=O)N[C@@H](Cc2ccccc2)C(N)=O)C(C)C)NC(=O)[C@H](Cc2c[nH]c4ccccc24)NC(=O)[C@H](CCCCN)NC(=O)[C@H](Cc2c[nH]cn2)NC(=O)[C@H]([C@@H](C)O)NC(=O)[C@H](CCCNC(=N)N)NC(=O)[C@H](CO)NC3=O)NC(=O)[C@H](CCCCN)NC(=O)[C@H](CC(=O)O)NC(=O)[C@H](CC(N)=O)NC(=O)[C@H](CC(=O)O)NC(=O)[C@@H]2CCCN2C1=O [SEQ ID NO: 265] (H-DCLGGMRKCIPDNDKCCRPNLVCSRTHKWCKYVF-NH2; disulfide 2-17, 9-23, 16-30)
hNav1.7 [2]; read-out: Nav1.7 Use IC50
  IC50: 9 nM
